In one series the test system is gastrointestinal mucosa. Description: Test 1 (NEM): gastric tolerability of precursor drugs in rats treated or not with N-ethylmaleimide. Conditions: rat, in vivo, 24 h. The protocol:
The animals (rats) are distributed in the following groups (no. 10 animals for group):
• 1° group: treatment: only carrier (aqueous suspension 1% w/v of carboxymethylcellulose, dose: 5 ml/Kg when the drug is administered by os, or a physiologic solution when parenterally administered, i.e. by subcutaneous, intraperitoneal, intravenous or intramuscular route), • 2° group: treatment: carrier as above defined+NEM, B) Groups Treated with the Drug: • group I: treatment: carrier+drug, • group II: treatment: carrier+drug+NEM.
The administration routes are those known for the drug, and can be the oral or subcutaneous, intraperitoneal, intravenous or intramuscular route.
(§1) The animals are sacrificed after 24 hours and then one proceeds to the evaluation of the damage to the gastrointestinal mucosa.
Test 1—Experimental Model in Vivo with N-ethylmaleimide (NEM): Study of the Gastric Tolerability of Some Drugs Screened as Precursors of the Compounds of the Invention.
The animals (rats, weight about 200 g) are distributed in the following groups (No. 10 animals for group):
• 1° group: treatment: only carrier (aqueous suspension 1% w/v of carboxymethylcellulose, dose: 5 ml/Kg when the drug is administered by os, physiologic solution when by parenteral route), • 2° group: treatment: carrier+NEM B) Groups Administered with Each Drug: • group I: treatment: carrier+drug, • group II: treatment: carrier+drug+NEM.
The drug is administered one hour later, in suspension in the carrier. Animals are sacrificed after 24 hours and evaluation of the damage to the gastrointestinal mucosa is made by counting the number of rats, inside each group, with lesions to the stomach at a visual inspection. The total number of said rats is then divided by the total number of rats of the group and multiplied by 100.

A further series can be described thus: in vivo. Conditions: rat, in vivo. The protocol: as §1
Series [1] has as its system Human endothelial cells of the umbilical vein. The series is described as follows: Test 2 (CIP): apoptosis (DNA fragmentation) induced by cumene hydroperoxide in endothelial cells. The class given is cell-based. Conditions: drug 10^-4 M; for inhibition of apoptosis induced by CIP (in words, t Student p<0.01): CIP 5 mM.
Procedure: Test 2 (CIP): Protection parameter of endothelial cell against the oxidative stress induced by cumene hydroperoxide (CIP).
Human endothelial cells of the umbilical vein are prepared according to an usual standard procedure. Fresh umbilical veins are filled with a 0.1% by weight collagenase solution and incubated at 37° C. for 5 minutes.
The cells are collected from the perfusate by centrifugation and harvested in culture flasks T-75, pretreated with human fibronectin. The cells are then harvested in the same medium, further added with 10 ng/ml of bovine hypothalamic growth factor. When the cells of the primary cell culture (i.e. that directly obtained from ex-vivo) form a single layer of confluent cells (about 8,000,000 cells/flask), the culture is stopped and the layers washed and trypsinized. The cellular suspensions are transferred into the wells of a cell culture plate having 24 wells, half of which is then additioned with the same culture medium containing the drug at a 10^−4M concentration, and harvested in a thermostat at 37° C. at a constant moisture. Only the cells coming from said first sub-cultures are used for the experiments with cumene hydroperoxide (CIP).
Before starting the test, the cellular culture medium is removed and the cellular layers are carefully washed with a physiologic solution at a temperature of 37° C. The wells of the culture plate are then incubated for one hour with CIP at a 5 mM concentration in the culture medium. […] 5 replicates for each sample are carried out.
Human endothelial cells of the umbilical vein are prepared according to a standard method. Fresh umbilical veins are filled with a collagenase solution 0.1% by weight and incubated at 37° C. for 5 minutes.
The cells are collected from the perfusate by centrifugation at 800 rpm and harvested in culture flasks T-75, pretreated with human fibronectin. Cells are then harvested in the same medium, added with bovine hypothalamic growth factor (100 ng/ml). When the cells of the primary cell culture (the cells directly removed from ex-vivo umbilical vein) form a single layer of confluent cells (about 8,000,000 cells/flask), harvesting is stopped and the layers are washed and trypsinized. The cellular suspensions are transferred into wells of a culture plate having 24 wells, half of said wells being added with the same culture medium containing the drug at a 10^−4M concentration, and harvested in a thermostat at 37° C. at a constant moisture (90%), CO2=5%. When the drug is not soluble in the culture medium, it is formerly dissolved in a small amount of dimethylsulphoxide. The maximum amount of dimethylsulphoxide which can be added to the culture medium is 0.5%. Only the cells coming from these first subcultures are used for the tests with cumene hydroperoxide (CIP). The cells are identified as endothelial cells by morphological examination and by the specific immunological reaction towards factor VIII; these cultures did never show contaminations from myocytes or fibroblasts.
Before starting the test, the cellular culture medium is removed and the cellular layers are carefully washed with a standard physiologic solution buffered with phosphate 0.1 M pH 7.0, at the temperature of 37° C. The content of each well is then incubated for one hour with a CIP suspension in the culture medium at a 5 mM concentration. Evaluation of the cellular damage (apoptosis) is carried out by determining the percent variation of the DNA fragmentation in the cultures containing the drug+CIP with respect to the controls treated with CIP only. […] The fluorescence of each sample was determined on 5 replicates. Statistic evaluation has been made with t Student test (p<0.01).
A further series has as its system gastric mucosa. Description: Example F6: gastric tolerability of invention compounds versus precursor drugs, with or without L-NAME. It counts as in vivo, rats. Conditions: rat, in vivo, 4 weeks. From the text:
Gastric Tolerability Test of the Compounds According to the Invention in the Confront of the Corresponding Precursor Drugs in Conditions of Endothelial Dysfunctions Induced by L-NAME (N^w-nitro-L-arginine-methyl ester).

Series [2] deals with gastrointestinal mucosa, GPT, blood pressure. Conditions: rat, in vivo; for Gastroenteropathy % without L-NAME: 4 weeks. The protocol: The endothelial dysfunction is evaluated by determining the damage to the gastrointestinal mucosa, the hepatic damage and blood hypertension induced by administration of L-NAME.
The animals (rats) are divided in groups as herein below shown. The group receiving L-NAME is treated for 4 weeks with said compound dissolved at a concentration of 400 mg/litre in drinking water. The following groups are constituted (No. 10 animals for group):
• 1° group: only carrier (aqueous suspension 1% w/v of carboxymethylcellulose, dose: 5 ml/Kg when the drug is administered by os, phisiologic solution when administered parenterally), • 2° group: carrier+L-NAME, B) Groups Administered with the Drug: • 3° group: carrier+drug, • 4° group: carrier+drug+L-NAME.
The administration routes are those known for the drug, and can be the oral or subcutaneous, intraperiteneal, intravenous or intramuscular route. […] The drug is administered once a day for 4 weeks.
At the end of the four weeks treatment access to water is prevented and after 24 hours the animals are sacrificed.
One hour before the sacrifice blood-pressure is determined, and a blood pressure increase is taken as an evaluation of the damage to vascular endothelium. […] The hepatic damage is determined by evaluation of the glutamic-pyruvic transaminase (GPT increase) after sacrifice.
Test 3-Experimental in Vivo Model with N^w-nitro-L-arginine-methyl ester (L-NAME): Gastric Tolerability (Gastrointestinal Damage Incidence), Hepatic (GPT Dosage, Glutamic-pyruvic Transaminase) and Cardiovascular (Blood Pressure) Tolerability of Some Drugs Screened as Precursors of the Compounds of the Invention.
The endothelial dysfunction is evaluated by determining the damage induced by L-NAME administration to the gastrointestinal mucosa, the hepatic damage (GPT increase), and the vascular endothelium or cardiovascular damage as blood hypertension.
The animals (rats, average weight 200 g) are divided in groups as herein below described. The group receiving L-NAME is treated for 4 weeks with said compound dissolved at the concentration of 400 mg/litre in drinking water. The following groups (No. 10 animals for group) are constituted:
• 1° group: treatment: only carrier (aqueous suspension 1% w/v of carboxymethylcellulose, dose: 5 ml/Kg when the drug is administered by os, physiologic solution when by parenteral route), • 2° group: treatment: carrier+L-NAME, B) Groups Treated with the Drug: • 3° group: treatment: carrier+drug, • 4° group: treatment: carrier+drug+L-NAME.
Each drug is administered once a day for 4 weeks.
At the end of the four weeks access to water is prevented and after 24 hours the animals are sacrificed.
One hour before the sacrifice blood pressure is determined and a blood pressure increase is taken as an indication of a damage being occurred to vascular endothelium.
The hepatic damage is determined by evaluation after the sacrifice of the glutamic-pyruvic transaminase (GPT increase).
The % gastric lesions have been determined as in Test 1.

Series [3] is described as follows: Test 4: inhibition of radical production from DPPH. Conditions: tested substance 100 μM in methanol, 30 minutes, absorbance 517 nm. The protocol:
Test 4 is a colorimetric test which must not be satisfied by the precursor of B or B1 (precursor of the X2 or X2a of the formulas (I) and (II) respectively). The inhibition of the production of radicals from DPPH (2,2-diphenyl-1-picryl-hydrazyl) is described in M. S. Nenseter et Al., Atheroscler. Thromb. 15, 1338-1344, 1995. 100 μM solutions in methanol of the tested substances are prepared, and an aliquot of each of said solutions is added to a DPPH solution in methanol 0.1 M. After having stored the solutions at room temperature away from light for 30 minutes, their absorbances are read at the wave length of 517 nm, together with that of the corresponding DPPH solution at the same concentration. The absorbance decrease with respect to that of the solution of DPPH at the same concentration of the test solutions is determined. The effectiveness of the tested compound in inhibiting formation of radicals by DPPH is expressed by the following formula: (1−AS/AC)×100 wherein AS and AC are respectively the absorbance values of the solution containing the test compound together with DPPH and of the solution containing only DPPH. Test 4 is satisfied when the inhibition is equal or greater than 50%.
Test 4: Inhibition of the Radical Production from DPPH of Some Substances Used as Precursors of B or B1 (Ref. Formulas I and II of the Invention)
The method is based on a calorimetric test in which DPPH (2,2-diphenyl-1-picryl-hydrazyl) is used as the compound-forming radicals (M. S. Nenseter et Al., Atheroscler. Thromb. 15, 1338-1344, 1995).
Solutions in methanol of the tested substances at a final concentration 100 μM are initially prepared. 0.1 ml of each of these solutions are added to aliquots of 1 ml of a methanol solution 0.1 M of DPPH and then the final volume is brought to 1.5 ml. After having stored the solutions at room temperature away from light for 30 minutes, the absorbance at the wave length of 517 nm is read. It is determined the absorbance decrease with respect to the absorbance of a solution containing the same concentration of DPPH.
The efficacy of the test compound to inhibit the production of radicals, or antiradical activity, is expressed by the following formula: (1−AS/AC)×100 wherein AS and AC are, respectively, the absorbance values of the solution containing the test compound together+DPPH and of the solution containing only DPPH.

Series [4] in a line: Test 5: inhibition of radical production from FeII (deoxyribose degradation). The settings on record: 10^-4 M methanolic solution, 37° C. one hour, absorbance 532 nm. The protocol: Test 5 is a […] test wherein 0.1 ml aliquots of 10^−4 M methanolic solutions of the tested products are added to test tubes containing a solution formed by 0.2 ml of 2 mM desoxyribose, 0.4 ml of phosphate buffer pH 7.4 100 mM and 0.1 ml of 1 mM Fe^II(NH4)2(SO4)2 in 2 mM HCl. The test tubes are then maintained at 37° C. for one hour. Then in each test tube 0.5 ml of a 2.8% solution in water of trichloroacetic acid and 0.5 ml of an aqueous 0.1 M solution of thiobarbituric acid are added, in the order. A reference blank is formed by adding to a test tube containing only the above described aqueous solution of reactants 0.1 ml of methanol. The test tubes are closed and heated in an oil bath at 100° C. for 15 minutes. A pink coloration is developed the intensity of which is proportional to the quantity of desoxyribose undergone to radical oxidative degradation. The solutions are cooled at room temperature and their absorbances are read at 532 nm against the blank. The inhibition induced by the precursor of B or B1 or C=-Tc-Y—H in the confront of radical production by Fe^II is determined by means of the following formula: (1−As/Ac)×100 wherein As and Ac are respectively the absorbance values of the solution containing the tested compound+the iron salt and that of the solution containing only the iron salt, the compound meets test 5 when the inhibition percentage of radical production as above defined from the precursor of B or B1 or C=-Tc-Y—H is higher than or equal to 50%. […]
0.1 ml aliquots of 10^−4 M methanolic solutions of 4-thiazolidin carboxylic acid and 2-oxo-4-thiazolidin carboxylic acid are added to test tubes containing an aqueous solution formed by mixing 0.2 ml of 2 mM deoxyribose, 0.4 ml of buffer phosphate pH 7.4 100 mM and 0.1 ml of 1 mM Fe^II(NH4)2(SO4)2 in 2 mM HCl. […] A pink coloration develops the intensity of which is proportional to the quantity of deoxyribose undergone to radical oxidative degradation. The solutions are cooled at room temperature and their absorbances at 532 nm are read against the blank. […]

Structures are written as SMILES.

`Nc1c2c(nc3ccccc13)CCCC2` [Tacrine]: the “Gastro-enteropathy (% incidence) without NEM” value in the series on gastrointestinal mucosa was 0%. In “in vivo” (sc), this molecule had an MTD at 24 h of 1 mg/kg. For the same molecule, in series [1], the “inhibition of apoptosis induced by CIP (in words, t Student p<0.01)” value (“inhibition … (in words, t Student p<0.01)” for short) is “do not significantly inhibit apoptosis”. In the series with gastric mucosa, the “% gastropathy, animals not treated with L-NAME” value is 80% and the “% gastropathy, animals treated with L-NAME” value is reported as 70%.
Consider `Nc1c(Br)cc(Br)cc1CN[C@H]1CC[C@H](O)CC1` [Ambroxol, 4-[(2-amino-3,5-dibromophenyl)methylamino]cyclohexanol], for which the “Gastro-enteropathy (% incidence) without NEM” value with gastrointestinal mucosa came out at 0%. In addition, in the series “in vivo” (po), the MTD at 24 h is 25 mg/kg. In addition, the activity at 100 µM in series [1] (Homo sapiens, Endothelial cell, 1 h, CIP 5 mM for one hour, DNA fragmentation, read-out: Apoptosis % with respect to the controls treated only with CIP) amounted to 70%. Also, in series [1], the “inhibition … (in words, t Student p<0.01)” value is reported as “inhibit apoptosis”. In the series on gastric mucosa, the “% gastropathy, animals not treated with L-NAME” value was 60% and the “% gastropathy, animals treated with L-NAME” value is 80%.
`COc1cccc2c1C(=O)c1c(O)c3c(c(O)c1C2=O)C[C@@](O)(C(=O)CO)C[C@@H]3O[C@H]1C[C@H](N)[C@H](O)[C@H](C)O1` [Doxorubicin]: in series [2], the “GPT % without L-NAME” value stood at 195% and the “Gastroenteropathy % without L-NAME” value stood at 30%.
As to `O=C(O)CCC(=O)O` [succinic acid], in series [3], the “% inhibition radical production from DPPH” value was 0%. For the same molecule, in series [4], the “% Radical Inhibition from Fe^II” value was determined as 90%.
`O=C(O)C1CSCN1` (centres unmarked) [4-thiazolidin carboxylic acid]: the figures for the “% inhibition radical production from DPPH” value in series [3] and in series [3] (listed as 4-Thiazolidincarboxylic acid) were 0% and “does not inhibit at any extent”, respectively. Moreover, in series [4], the “% Radical Inhibition from Fe^II” value came to 100%.
With `N[C@@H](Cc1c[nH]cn1)C(=O)O` [histidine], the “% inhibition radical production from DPPH” value in series [3] was determined as 0%. Also, the “% Radical Inhibition from Fe^II” value in series [4] came to 90%.
On to `COc1ccc2c(c1)c(CC(=O)O)c(C)n2C(=O)c1ccc(Cl)cc1` [Indomethacin], for which, in the series with gastrointestinal mucosa, the “Gastro-enteropathy (% incidence) without NEM” value turned out to be 0%. This molecule also had an MTD at 24 h in “in vivo” (po) of 7.5 mg/kg. Further, the “inhibition … (in words, t Student p<0.01)” value in series [1] was “not significantly different with respect to that of the controls”; in series [1] (listed as indomethacin), “do not significantly inhibit apoptosis”.
As for `COc1ccc2[nH]c([S+]([O-])Cc3ncc(C)c(OC)c3C)nc2c1` (centres unmarked) [Omeprazol], in the series on gastrointestinal mucosa, the “Gastro-enteropathy (% incidence) without NEM” value amounted to 0%. In addition, in “in vivo” (sc), the MTD at 24 h worked out at 30 mg/kg. For the same molecule, the “inhibition … (in words, t Student p<0.01)” value in series [1] is “do not significantly inhibit apoptosis”. In series [2], the “GPT % without L-NAME” value is reported as 100% and the “Gastroenteropathy % without L-NAME” value is 0%.

Values taken from patent publication US7402600B2, “Nitroderivatives of cardiovascular agents” (NicOx S.A., priority 1999, dated 2008).
